# Patent publication US11963962B2, “Platelet count-agnostic methods of treating myelofibrosis” (Sierra Oncology, Inc., priority 2018, dated 2024)
# Values joined by “and” are separate entries in the source; they are usually repeats but may differ in a detail not shown here. Equal values may be shown once.
# Columns and labels:
# Format in all cases: in vivo, human
# myelofibrosis [1] = experiment: SIMPLIFY-1 Phase 3 trial: total symptom score (TSS) response at week 24; details: for TSS Responders / TSS proportion (Wilson 95% CI) / TSS Absolute risk difference (Newcombe 95% CI): SIMPLIFY 1, 24 weeks; for TSS Absolute risk difference (Newcombe 95% CI): MMB vs Control; for TSS response rate: SIMPLIFY 1, week 24
# Experimental: In the SIMPLIFY-1 trial (NCT01969838), the efficacy and safety of MMB versus ruxolitinib (RUX) was studied in patients with myelofibrosis who were naïve to treatment with a JAK inhibitor and a platelet count of ≥50×10^9/L. Patients (N=432) with high risk or intermediate-2 risk or symptomatic intermediate-1 risk myelofibrosis received 24 weeks of treatment with 200 mg MMB once daily or 20 mg RUX twice a day (or per label), after which all patients could receive open-label momelotinib. […] The primary endpoint was a reduction by at least 35% in the spleen volume at 24 weeks compared with baseline.
# (§1) FIG. 8A: SIMPLIFY-1 study of MMB in a first line population previously untreated with JAKi. For SIMPLIFY-1, the goal was non-inferiority over ruxolitinib (RUX) (MMB: N=215 subjects, and RUX: N=217 subjects). FIG. 8B: SIMPLIFY-2 study of second line population of anemic or thrombocytopenic subjects previously treated with RUX (red blood cell (RBC) transfusions on RUX=64%. RUX dose adjustment for: thrombocytopenia=21%; anemia/hematoma=35%). For SIMPLIFY-2, the goal was superiority over best available treatment (BAT) (MMB: N=104 subjects, and BAT: N=52 subjects). In both SIMPLIFY-1 and SIMPLIFY: Primary endpoint: >=35% reduction in spleen volume at 24 weeks. Secondary endpoints: Total symptom score (TSS) response at 24 weeks. Effects on RBC transfusion requirements.
# The SIMPLIFY 1 clinical trial data was reanalyzed for subgroups of subjects having particular baseline platelet counts in the MMB versus RUX arms of the study.
# Patient data was analyzed according to the following baseline platelet count (PLT) subgroups and in particular according to the threshold PLT of 150×10^9/L: 1) PLT<50×10^9/L; 2) 50×10^9/L≤PLT<100×10^9/L; 3) 100×10^9/L≤PLT<150×10^9/L. The reanalyzed data is presented in Table 13 (SIMPLIFY 1). Selected data is also illustrated in the following figures.
# myelofibrosis [2] = experiment: SIMPLIFY-2 Phase 3 trial: total symptom score (TSS) response; details: for TSS Responders / TSS proportion (Wilson 95% CI) / TSS Absolute risk difference (Newcombe 95% CI): SIMPLIFY 2; for TSS Absolute risk difference (Newcombe 95% CI): MMB vs Control
# From the text: In the SIMPLIFY-2 trial (NCT02101268), the efficacy and safety of MMB was studied in anemic or thrombocytopenic subjects with myelofibrosis who were previously treated with ruxolitinib (RUX). […] Specifically, anemic or thrombocytopenic myelofibrosis patients who had and were previously treated with (RUX) (for at least 28 days) were studied over 24 weeks for response to MMB versus best available treatment (BAT), primarily RUX (89% of patients) but alternatively no treatment or other standard interventions, after which period all patients could receive extended MMB treatment. Previously treated RUX patients who either required red blood cell transfusions or RUX dose reduction with grade 3 thrombocytopenia, anemia, and/or bleeding at grade 3 or worse, with palpable spleen of at least 5 cm and without grade 2 or greater peripheral neuropathy were included in the trial. There was no lower limit for the required baseline platelet count. The primary endpoint was a reduction by at least 35% in the spleen volume at 24 weeks compared with baseline.
# as §1
# The SIMPLIFY 2 clinical trial data was reanalyzed for subgroups of subjects having particular baseline platelet counts in the MMB versus BAT arms of the study.
# Patient data was analyzed according to the following baseline platelet count (PLT) subgroups and in particular according to a threshold PLT of 150×10^9/L: 1) PLT<50×10^9/L; 2) 50×10^9/L≤PLT<100×10^9/L; 3) 100×10^9/L≤PLT<150×10^9/L. The reanalyzed data is presented in Table 14 (SIMPLIFY 2).
# myelofibrosis [3] = experiment: Translational biology Phase 2 study (GS-US-352-1672) in transfusion dependent MF patients
# From the text: In a translational biology study, we determined the impact of momelotinib on plasma hepcidin, markers of iron storage and availability, erythropoiesis, and inflammation to explore mechanisms of the favorable effects of momelotinib on MF-associated anemia and transfusion independence. See Oh et al. “Hepcidin Suppression by Momelotinib Is Associated With Increased Iron Availability and Erythropoiesis in Transfusion-Dependent Myelofibrosis Patients”, Abstract #4282: Presented at ASH 60th Annual Meeting & Exposition: Dec. 1-4, 2018, San Diego, Calif., the disclosure of which is herein incorporated by reference.
# Population: Primary MF (PMF), post-polycythemia vera MF (post-PV MF), or post-essential thrombocythemia MF (post-ET MF). Requiring MF therapy (in the opinion of the investigator). High risk or intermediate-2 (DIPSS). Transfusion Dependent (TD) at baseline. [defined as ≥4 U red blood cell (RBC) transfusion in the 8 weeks prior to the first dose of MMB]. Goal: Exploratory translational biology study (MMB: N=41 subjects). Objectives: Primary objective: determine the transfusion independence response rate (TI; ≥12 week & ≥8 week) for TD subjects with MF treated with momelotinib. Secondary objectives: Evaluate baseline levels and changes in markers of iron metabolism; Assess inhibition of JAK1/2; Evaluate momelotinib pharmacokinetics in transfusion-dependent subjects with MF; and Evaluate changes in circulating cytokine and inflammatory markers.
smiles,measurement,setting,value
"Cl.N#CCNC(=O)c1ccc(-c2ccnc(Nc3ccc(N4CCOCC4)cc3)n2)cc1 [MMB, N-(cyanomethyl)-4-(2-(4-morpholinophenylamino)pyrimidin-4-yl)benzamide]",TSS Responders,myelofibrosis [1]; 50 ≤ PLT < 100 ×10^9/L,6
same,TSS proportion (Wilson 95% CI),myelofibrosis [1]; 50 ≤ PLT < 100 ×10^9/L,0.33
same,TSS Absolute risk difference (Newcombe 95% CI),myelofibrosis [1]; 50 ≤ PLT < 100 ×10^9/L,0.12
same,TSS Responders,myelofibrosis [1]; 100 ≤ PLT < 150 ×10^9/L,7
same,TSS proportion (Wilson 95% CI),myelofibrosis [1]; 100 ≤ PLT < 150 ×10^9/L,0.24
same,TSS Absolute risk difference (Newcombe 95% CI),myelofibrosis [1]; 100 ≤ PLT < 150 ×10^9/L,−0.15
same,TSS Responders,myelofibrosis [1]; ITT,60
same,TSS proportion (Wilson 95% CI),myelofibrosis [1]; ITT,0.28
same,TSS Absolute risk difference (Newcombe 95% CI),myelofibrosis [1]; ITT,−0.13
same,TSS response rate,"myelofibrosis [1]; ITT, all patients",28%
same,TSS response rate,"myelofibrosis [1]; ITT, platelets 50-100 (subgroup 2)",33%
same,TSS response rate,"myelofibrosis [1]; ITT, platelets 100-150 (subgroup 3)",24%
same,TSS response rate,"myelofibrosis [1]; baseline TSS ≥ 6, all patients",33%
same,TSS response rate,"myelofibrosis [1]; baseline TSS ≥ 6, platelets 50-100 (subgroup 2)",36%
same,TSS response rate,"myelofibrosis [1]; baseline TSS ≥ 6, platelets 100-150 (subgroup 3)",32%
same,TSS response rate,"myelofibrosis [1]; baseline TSS ≥ 10, all patients",33%
same,TSS response rate,"myelofibrosis [1]; baseline TSS ≥ 10, platelets 50-100 (subgroup 2)",36%
same,TSS response rate,"myelofibrosis [1]; baseline TSS ≥ 10, platelets 100-150 (subgroup 3)",32%
same,Total Symptom Score (TSS) response,"myelofibrosis [1]; SIMPLIFY-1, overall",28.4%
same,TSS Noninferior Proportion Difference,"myelofibrosis [1]; SIMPLIFY-1, MMB vs RUX","0.00 (−0.08, 0.08)"
same,TSS symptom response,"myelofibrosis [2]; SIMPLIFY 2, second line patients",26.2%
same,TSS Responders,myelofibrosis [2]; 50 ≤ PLT < 100 ×10^9/L,9
same,TSS proportion (Wilson 95% CI),myelofibrosis [2]; 50 ≤ PLT < 100 ×10^9/L,0.27
same,TSS Absolute risk difference (Newcombe 95% CI),myelofibrosis [2]; 50 ≤ PLT < 100 ×10^9/L,0.27
same,TSS Responders,myelofibrosis [2]; 100 ≤ PLT < 150 ×10^9/L,6
same,TSS proportion (Wilson 95% CI),myelofibrosis [2]; 100 ≤ PLT < 150 ×10^9/L,0.25
same,TSS Absolute risk difference (Newcombe 95% CI),myelofibrosis [2]; 100 ≤ PLT < 150 ×10^9/L,0.25
same,TSS Responders,myelofibrosis [2]; ITT,27
same,TSS proportion (Wilson 95% CI),myelofibrosis [2]; ITT,0.26
same,TSS Absolute risk difference (Newcombe 95% CI),myelofibrosis [2]; ITT,0.20
same,TSS Responders,myelofibrosis [2]; PLT < 50 ×10^9/L,1
same,TSS proportion (Wilson 95% CI),myelofibrosis [2]; PLT < 50 ×10^9/L,0.11
same,TSS Absolute risk difference (Newcombe 95% CI),myelofibrosis [2]; PLT < 50 ×10^9/L,−0.03
same,≥8 week transfusion independence rate,"myelofibrosis [3]; Phase 2 GS-US-352-1672, TD subjects, N=41",39.0%
same,≥12 week transfusion independence rate,"myelofibrosis [3]; Phase 2 GS-US-352-1672, TD subjects, N=41, listed as momelotinib",34% and 34.1%
same,time to increased serum iron and transferrin,"myelofibrosis [3]; after momelotinib treatment initiation, FIG. 13",≤ 2 weeks
same,TI-NR patients with decreased transfusion burden (≥50%),"myelofibrosis [3]; any 8 week period, units of RBC, ≥2 unit decrease",77.8%
same,effect on hepcidin,"myelofibrosis [3]; post-MMB administration, FIG. 11",consistently decreased hepcidin
